Five molecules from ChEMBL document CHEMBL5465560, “Selectivity Literature for EUbOPEN Chemogenomic Library” (2024) can be followed below.

The structures appear in SMILES notation.

Assay [1] addresses 1-phosphatidylinositol 3-phosphate 5-kinase (Homo sapiens) (UniProt Q9Y2I7). Description: Selectivity interaction (KinomeScan (DiscoverX)) EUB0000695a PIKFYVE. The settings on record: at 100 nM.
Assay [2] deals with T1, Serine/threonine-protein kinase D2 (Homo sapiens) (UniProt Q9BZL6).
T1 sequence (whole entry): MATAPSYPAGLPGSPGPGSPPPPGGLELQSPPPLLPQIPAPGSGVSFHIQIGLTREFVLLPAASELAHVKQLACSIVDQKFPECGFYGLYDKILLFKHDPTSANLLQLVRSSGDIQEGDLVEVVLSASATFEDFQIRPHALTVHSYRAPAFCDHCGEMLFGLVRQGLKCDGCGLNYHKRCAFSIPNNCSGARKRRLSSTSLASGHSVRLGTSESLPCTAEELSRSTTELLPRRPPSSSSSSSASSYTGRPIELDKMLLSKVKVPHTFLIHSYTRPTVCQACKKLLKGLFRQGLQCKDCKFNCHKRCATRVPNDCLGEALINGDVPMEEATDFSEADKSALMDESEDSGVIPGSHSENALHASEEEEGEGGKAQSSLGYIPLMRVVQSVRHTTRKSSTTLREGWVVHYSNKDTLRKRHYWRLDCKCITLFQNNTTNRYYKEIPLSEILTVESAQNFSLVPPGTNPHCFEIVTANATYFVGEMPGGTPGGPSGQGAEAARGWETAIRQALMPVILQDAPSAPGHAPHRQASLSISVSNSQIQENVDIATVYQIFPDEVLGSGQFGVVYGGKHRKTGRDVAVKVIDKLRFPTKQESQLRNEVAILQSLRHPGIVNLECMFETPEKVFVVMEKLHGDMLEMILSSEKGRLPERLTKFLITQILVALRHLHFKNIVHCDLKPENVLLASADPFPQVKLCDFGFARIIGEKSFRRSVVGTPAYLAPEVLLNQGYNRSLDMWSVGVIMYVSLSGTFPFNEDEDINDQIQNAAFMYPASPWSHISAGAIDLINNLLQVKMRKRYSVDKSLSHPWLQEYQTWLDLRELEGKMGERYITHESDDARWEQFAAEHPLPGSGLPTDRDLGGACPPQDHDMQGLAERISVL
Description: Selectivity interaction (KinomeScan (DiscoverX)) EUB0000695a PRKD2. The settings on record: at 100 nM.

For assay [3], the target named is Serine/threonine-protein kinase 26 (Homo sapiens, UniProt Q9P289). Put plainly: Selectivity interaction (ActivX KiNativ screen (kinase selectivity in THP-1 cell lysates)) EUB0000639a STK26. It counts as subcellular. The settings on record: lysate, at 0.04 µM.
Sequence of Serine/threonine-protein kinase 26 (Q9P289 2-416 limits assumed): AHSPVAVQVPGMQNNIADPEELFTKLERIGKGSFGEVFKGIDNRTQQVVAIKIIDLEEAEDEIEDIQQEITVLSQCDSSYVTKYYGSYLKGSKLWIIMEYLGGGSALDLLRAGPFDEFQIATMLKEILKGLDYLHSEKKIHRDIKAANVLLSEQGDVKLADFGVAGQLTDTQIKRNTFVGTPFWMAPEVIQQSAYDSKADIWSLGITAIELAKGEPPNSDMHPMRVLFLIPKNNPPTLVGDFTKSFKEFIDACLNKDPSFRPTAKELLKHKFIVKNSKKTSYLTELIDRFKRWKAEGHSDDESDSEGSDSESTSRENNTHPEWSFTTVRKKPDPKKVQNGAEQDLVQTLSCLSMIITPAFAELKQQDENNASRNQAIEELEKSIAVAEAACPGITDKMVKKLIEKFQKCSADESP
Assay [4] concerns the target T2, Mitogen-activated protein kinase kinase kinase 3 (Homo sapiens) (UniProt Q99759).
T2 sequence (whole entry): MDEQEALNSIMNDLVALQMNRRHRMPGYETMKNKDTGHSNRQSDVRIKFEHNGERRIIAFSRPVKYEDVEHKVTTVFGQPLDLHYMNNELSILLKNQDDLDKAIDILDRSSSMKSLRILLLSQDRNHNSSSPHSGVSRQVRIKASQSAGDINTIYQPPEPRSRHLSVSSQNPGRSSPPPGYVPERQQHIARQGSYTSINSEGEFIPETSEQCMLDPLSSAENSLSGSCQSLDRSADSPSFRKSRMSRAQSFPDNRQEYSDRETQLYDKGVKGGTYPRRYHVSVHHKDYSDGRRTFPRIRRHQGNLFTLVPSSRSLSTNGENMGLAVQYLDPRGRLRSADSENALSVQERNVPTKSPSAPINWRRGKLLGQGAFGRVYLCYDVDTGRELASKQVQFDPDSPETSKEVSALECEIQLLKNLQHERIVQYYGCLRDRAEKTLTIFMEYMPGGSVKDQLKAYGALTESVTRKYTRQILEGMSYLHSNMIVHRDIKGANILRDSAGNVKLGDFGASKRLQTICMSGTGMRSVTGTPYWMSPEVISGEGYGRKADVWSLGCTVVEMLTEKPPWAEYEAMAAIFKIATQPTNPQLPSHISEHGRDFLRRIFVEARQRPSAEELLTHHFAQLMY
Description: Selectivity interaction (ActivX KiNativ screen (kinase selectivity in THP-1 cell lysates)) EUB0000639a MAP3K3. The class given is subcellular. The settings on record: lysate, at 5 µM.

In assay [5] the target is Ribosomal protein S6 kinase alpha-1 (Homo sapiens, UniProt Q15418). Description: Selectivity interaction (KinomeScan (DiscoverX)) EUB0000229b RPS6KA1. The note with it: at 10 µM.
Sequence of Ribosomal protein S6 kinase alpha-1 (Q15418 whole entry): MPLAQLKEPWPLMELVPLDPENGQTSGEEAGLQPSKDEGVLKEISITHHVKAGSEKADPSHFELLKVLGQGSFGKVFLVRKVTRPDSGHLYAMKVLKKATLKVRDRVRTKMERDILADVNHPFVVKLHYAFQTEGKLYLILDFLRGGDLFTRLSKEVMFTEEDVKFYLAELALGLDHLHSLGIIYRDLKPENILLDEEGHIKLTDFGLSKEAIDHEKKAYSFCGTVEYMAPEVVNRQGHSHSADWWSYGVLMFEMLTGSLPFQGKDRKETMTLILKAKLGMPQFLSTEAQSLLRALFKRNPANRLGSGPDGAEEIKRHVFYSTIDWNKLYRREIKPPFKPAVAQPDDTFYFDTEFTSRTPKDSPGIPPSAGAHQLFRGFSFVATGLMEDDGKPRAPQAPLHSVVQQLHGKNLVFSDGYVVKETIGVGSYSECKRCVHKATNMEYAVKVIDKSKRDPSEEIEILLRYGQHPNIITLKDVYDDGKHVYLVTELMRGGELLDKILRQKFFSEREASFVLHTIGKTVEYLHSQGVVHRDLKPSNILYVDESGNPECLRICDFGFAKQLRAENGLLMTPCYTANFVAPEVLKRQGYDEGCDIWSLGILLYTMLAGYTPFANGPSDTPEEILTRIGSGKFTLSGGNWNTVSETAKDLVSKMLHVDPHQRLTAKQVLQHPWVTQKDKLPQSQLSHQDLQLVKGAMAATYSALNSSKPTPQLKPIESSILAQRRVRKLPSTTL
The target of assay [6] is RAF proto-oncogene serine/threonine-protein kinase (Homo sapiens) (UniProt P04049). The note with it: at 10 µM.
Sequence of RAF proto-oncogene serine/threonine-protein kinase (Homo sapiens) (P04049 whole entry): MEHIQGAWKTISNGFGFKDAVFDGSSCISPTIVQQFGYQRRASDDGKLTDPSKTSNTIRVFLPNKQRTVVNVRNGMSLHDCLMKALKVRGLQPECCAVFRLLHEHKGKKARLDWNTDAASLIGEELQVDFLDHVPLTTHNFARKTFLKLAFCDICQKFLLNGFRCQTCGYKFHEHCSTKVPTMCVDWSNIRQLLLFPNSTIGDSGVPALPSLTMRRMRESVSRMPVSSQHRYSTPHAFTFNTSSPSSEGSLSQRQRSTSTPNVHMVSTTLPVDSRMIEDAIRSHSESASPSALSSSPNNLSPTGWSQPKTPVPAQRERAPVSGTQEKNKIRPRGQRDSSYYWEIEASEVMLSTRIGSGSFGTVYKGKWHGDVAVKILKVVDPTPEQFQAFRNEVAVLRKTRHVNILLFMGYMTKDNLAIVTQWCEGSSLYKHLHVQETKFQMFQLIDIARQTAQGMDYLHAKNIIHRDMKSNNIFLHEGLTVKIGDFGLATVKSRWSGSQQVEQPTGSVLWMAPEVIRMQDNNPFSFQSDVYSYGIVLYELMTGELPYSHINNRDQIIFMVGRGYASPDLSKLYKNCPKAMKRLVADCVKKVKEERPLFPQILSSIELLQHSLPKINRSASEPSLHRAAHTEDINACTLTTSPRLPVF
Assay [7] concerns the target T3, Dual specificity protein kinase TTK (Homo sapiens) (UniProt P33981).
T3 sequence (whole entry): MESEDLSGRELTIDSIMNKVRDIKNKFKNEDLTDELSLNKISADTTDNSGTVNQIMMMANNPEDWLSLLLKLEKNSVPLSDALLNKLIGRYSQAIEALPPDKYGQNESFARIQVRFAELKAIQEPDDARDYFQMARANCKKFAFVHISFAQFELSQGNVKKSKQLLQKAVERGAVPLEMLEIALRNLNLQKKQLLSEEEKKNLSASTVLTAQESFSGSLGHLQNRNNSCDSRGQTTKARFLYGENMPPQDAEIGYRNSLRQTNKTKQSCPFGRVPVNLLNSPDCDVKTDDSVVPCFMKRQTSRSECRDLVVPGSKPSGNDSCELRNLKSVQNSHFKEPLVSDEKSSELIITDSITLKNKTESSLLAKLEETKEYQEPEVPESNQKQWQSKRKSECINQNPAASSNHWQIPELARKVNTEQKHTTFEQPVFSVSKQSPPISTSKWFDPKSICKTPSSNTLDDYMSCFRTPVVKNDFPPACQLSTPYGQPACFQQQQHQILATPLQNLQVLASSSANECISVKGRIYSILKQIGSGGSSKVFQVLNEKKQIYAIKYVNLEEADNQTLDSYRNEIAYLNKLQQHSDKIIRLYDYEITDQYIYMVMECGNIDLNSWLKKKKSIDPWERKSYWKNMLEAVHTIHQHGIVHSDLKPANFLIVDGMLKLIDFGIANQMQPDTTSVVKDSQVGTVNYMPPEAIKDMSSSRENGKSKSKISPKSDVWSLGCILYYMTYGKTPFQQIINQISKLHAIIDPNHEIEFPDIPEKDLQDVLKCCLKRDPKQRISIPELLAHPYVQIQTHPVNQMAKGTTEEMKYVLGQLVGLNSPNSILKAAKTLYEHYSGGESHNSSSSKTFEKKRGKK
Put plainly: Selectivity interaction (Kinase panel (literature)) EUB0001199aCl TTK. The settings on record: at 1 µM.

Sequence of 1-phosphatidylinositol 3-phosphate 5-kinase (Homo sapiens) (Q9Y2I7 whole entry): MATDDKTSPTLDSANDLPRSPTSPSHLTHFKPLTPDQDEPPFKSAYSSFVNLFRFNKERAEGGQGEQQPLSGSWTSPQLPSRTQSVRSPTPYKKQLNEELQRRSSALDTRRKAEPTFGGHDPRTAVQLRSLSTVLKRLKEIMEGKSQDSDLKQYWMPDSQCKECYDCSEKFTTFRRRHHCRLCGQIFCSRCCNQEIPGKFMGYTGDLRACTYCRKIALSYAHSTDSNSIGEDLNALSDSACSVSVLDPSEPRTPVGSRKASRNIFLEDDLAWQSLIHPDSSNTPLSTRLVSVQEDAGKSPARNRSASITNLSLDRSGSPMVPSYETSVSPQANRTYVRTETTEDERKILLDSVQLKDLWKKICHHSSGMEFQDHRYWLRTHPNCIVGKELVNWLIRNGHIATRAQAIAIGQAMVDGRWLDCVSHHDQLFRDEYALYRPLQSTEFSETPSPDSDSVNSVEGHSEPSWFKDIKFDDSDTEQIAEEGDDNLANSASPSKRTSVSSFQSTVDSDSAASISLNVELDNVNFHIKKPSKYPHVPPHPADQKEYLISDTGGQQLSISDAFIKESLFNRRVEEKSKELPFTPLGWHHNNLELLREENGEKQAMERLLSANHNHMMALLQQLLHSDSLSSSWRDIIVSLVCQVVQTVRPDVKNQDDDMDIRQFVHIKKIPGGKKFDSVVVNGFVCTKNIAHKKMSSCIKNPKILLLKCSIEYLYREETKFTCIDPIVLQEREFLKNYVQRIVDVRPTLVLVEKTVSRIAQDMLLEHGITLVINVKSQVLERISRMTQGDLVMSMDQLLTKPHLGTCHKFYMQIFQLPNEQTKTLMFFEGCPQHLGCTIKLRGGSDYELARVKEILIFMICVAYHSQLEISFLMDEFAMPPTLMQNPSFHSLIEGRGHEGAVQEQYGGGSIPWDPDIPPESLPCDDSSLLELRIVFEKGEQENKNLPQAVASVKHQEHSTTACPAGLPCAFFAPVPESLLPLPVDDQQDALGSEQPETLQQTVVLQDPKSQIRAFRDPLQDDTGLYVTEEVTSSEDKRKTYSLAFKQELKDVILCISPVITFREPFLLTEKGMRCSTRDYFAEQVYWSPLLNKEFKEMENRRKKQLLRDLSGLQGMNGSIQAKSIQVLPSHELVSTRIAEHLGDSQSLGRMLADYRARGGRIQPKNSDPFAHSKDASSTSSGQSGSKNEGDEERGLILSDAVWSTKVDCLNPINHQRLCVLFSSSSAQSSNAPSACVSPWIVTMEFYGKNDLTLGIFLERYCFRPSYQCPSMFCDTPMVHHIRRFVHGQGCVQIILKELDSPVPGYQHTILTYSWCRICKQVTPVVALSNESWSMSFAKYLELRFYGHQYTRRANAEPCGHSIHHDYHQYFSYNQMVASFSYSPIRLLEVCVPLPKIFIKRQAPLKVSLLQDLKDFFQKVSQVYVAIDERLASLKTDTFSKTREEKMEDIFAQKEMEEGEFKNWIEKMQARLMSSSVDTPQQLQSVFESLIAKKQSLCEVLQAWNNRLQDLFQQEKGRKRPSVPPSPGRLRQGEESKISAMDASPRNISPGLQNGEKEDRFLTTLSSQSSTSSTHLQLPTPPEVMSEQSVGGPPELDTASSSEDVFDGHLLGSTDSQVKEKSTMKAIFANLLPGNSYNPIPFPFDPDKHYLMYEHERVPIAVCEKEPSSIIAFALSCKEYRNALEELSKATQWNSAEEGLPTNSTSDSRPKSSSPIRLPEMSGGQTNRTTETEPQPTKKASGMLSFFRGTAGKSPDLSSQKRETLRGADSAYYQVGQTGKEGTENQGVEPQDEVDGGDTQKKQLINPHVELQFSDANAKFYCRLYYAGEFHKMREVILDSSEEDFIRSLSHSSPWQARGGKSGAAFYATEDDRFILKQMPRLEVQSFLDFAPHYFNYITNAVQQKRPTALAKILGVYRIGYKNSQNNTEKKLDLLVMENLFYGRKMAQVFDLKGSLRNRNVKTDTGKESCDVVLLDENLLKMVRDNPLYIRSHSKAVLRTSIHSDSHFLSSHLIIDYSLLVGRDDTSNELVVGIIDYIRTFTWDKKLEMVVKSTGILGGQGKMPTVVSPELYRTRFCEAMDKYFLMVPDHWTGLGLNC

In the case of `Cc1cc(F)c(C(=O)Nc2cccc(-c3nncn3C(C)C)n2)cc1-n1cnc(C2CC2)c1`, the % of control in assay [1] is 98%; in assay [2] it was 58%.

Turning to `CC[C@@H]1[C@H](F)C(=O)N[C@@H]1COc1nccc2cc(C(N)=O)c(OC)cc12` [ZIMLOVISERTIB], the % of inhibition is -3.8% in assay [3] and -26.4% in assay [4].

`COc1cc(N(C)c2ccnc3ccc(C(F)(F)F)cc23)cc(OC)c1OC` yielded a % binding in assay [5] of 93%.

As to `COCC(=O)NC/C=C/c1ccc2ncnc(Nc3ccc(Oc4ccc(C)nc4)c(C)c3)c2c1` [CP-724714], the % of control in assay [6] stood at 100%.

In the case of `CN1Cc2nccc(-c3cn(C)nc3-c3ccc(F)cc3)c2C1=O`, the % of inhibition in assay [7] is -3%.
